Reference: patent US9593149B2, “Amylin and calcitonin receptor agonist” (Novo Nordisk A/S, priority 2014, dated 2017)
Converted amounts (≈) assume the structure as drawn. Numbered stars: 1 amine (or outer) side, 2 acyl side, 3 side chain; on linkers, the order of the positions; unused ones are H or OH. Peptide text beside a SMILES is read from it. * marks the point of attachment. C20 diacid = O=C(O)CCCCCCCCCCCCCCCCCCC(=O)*; C18 diacid = O=C(O)CCCCCCCCCCCCCCCCC(=O)*; γGlu = O=C(O)[C@H](CCC(=O)[*:2])N[*:1]

Assay: Assay (IV) determination of solubility
Type: physicochemical
Experimental: Assay (IV)—Determination of Solubility
The mimylin peptide was dissolved in water at ˜500 nmol/ml and mixed 1:1 with a series of buffers (100 mM glycylglycine pH 3.0, 100 mM glycylglycine pH 4.0, 100 mM glycylglycine pH 5.0, 100 mM bistrispropane pH 6.0, 100 mM bistrispropane pH 6.5, 100 mM bistrispropane pH 7.0, 100 mM bistrispropane pH 7.5, 100 mM bistrispropane pH 8.0).

Structure (SMILES) | Solubility (pH 3.0) | Solubility (pH 4.0) | solubility at 18 h (pH 5.0) [µM] | Solubility (pH 6.0) | Solubility (pH 6.5) | Solubility (pH 7.0) | Solubility (pH 7.5) | Solubility (pH 8.0) | Solubility (pH 5.0) | solubility at 18 h (pH 6.0) [µM]
CC(C)C[C@H](NC(=O)CNC(=O)[C@H](CO)NC(=O)[C@H](C)NC(=O)CC[C@H](NC(=O)CCCCCCCCCCCCCCCCCCC(=O)O)C(=O)O)C(=O)N[C@@H](CO)C(=O)N[C@H](C(=O)N[C@@H](C)C(=O)N[C@H](C(=O)N[C@@H](CC(C)C)C(=O)NCC(=O)N[C@@H](CCCNC(=N)N)C(=O)N[C@@H](CC(C)C)C(=O)N[C@@H](CO)C(=O)N[C@@H](CCC(N)=O)C(=O)N[C@@H](CCC(=O)O)C(=O)N[C@@H](CC(C)C)C(=O)N[C@@H](Cc1cnc[nH]1)C(=O)N[C@@H](CCC(=O)O)C(=O)N[C@@H](CC(C)C)C(=O)N[C@@H](CCC(N)=O)C(=O)N[C@H](C(=O)N[C@@H](Cc1ccc(O)cc1)C(=O)N1CCC[C@H]1C(=O)N[C@@H](CCCNC(=N)N)C(=O)N[C@H](C(=O)N[C@@H](CCC(=O)O)C(=O)N[C@H](C(=O)NCC(=O)N[C@@H](CO)C(=O)N[C@@H](C)C(=O)N[C@H](C(=O)N[C@@H](Cc1ccc(O)cc1)C(N)=O)[C@@H](C)O)[C@@H](C)O)[C@@H](C)O)[C@@H](C)O)C(C)C)[C@@H](C)O [compound 122, [N-terminal(C20 diacid-gGlu), des1, 4G, 9V, 15Q, 21Q, 23Y, 30S, 31A, 32T, 33Y]mimylin] ({C20 diacid-γGlu}-ASGLSTAVLGRLSQELHELQTYPRTETGSATY-NH2) | ≧200 μM | ≧200 μM | 32 (≈ 124 µg/mL) | ≧200 μM | ≧200 μM | ≧200 μM | ≧200 μM | ≧200 μM |  | 
CC(C)C[C@H](NC(=O)CNC(=O)[C@H](CO)NC(=O)[C@H](C)NC(=O)[C@H](CCC(=O)O)NC(=O)CC[C@H](NC(=O)CCCCCCCCCCCCCCCCCCC(=O)O)C(=O)O)C(=O)N[C@@H](CO)C(=O)N[C@H](C(=O)N[C@@H](C)C(=O)N[C@@H](C)C(=O)N[C@@H](CC(C)C)C(=O)NCC(=O)N[C@@H](CCCNC(=N)N)C(=O)N[C@@H](CC(C)C)C(=O)N[C@@H](CO)C(=O)N[C@@H](CCC(N)=O)C(=O)N[C@@H](CCC(=O)O)C(=O)N[C@@H](CC(C)C)C(=O)N[C@@H](Cc1cnc[nH]1)C(=O)N[C@@H](CCC(=O)O)C(=O)N[C@@H](CC(C)C)C(=O)N[C@@H](CCC(N)=O)C(=O)N[C@H](C(=O)N[C@@H](Cc1ccc(O)cc1)C(=O)N1CCC[C@H]1C(=O)N[C@@H](CCCNC(=N)N)C(=O)N[C@H](C(=O)N[C@@H](CCC(=O)O)C(=O)N[C@H](C(=O)NCC(=O)N[C@@H](CO)C(=O)NCC(=O)N[C@H](C(=O)N[C@@H](Cc1ccc(O)cc1)C(N)=O)[C@@H](C)O)[C@@H](C)O)[C@@H](C)O)[C@@H](C)O)[C@@H](C)O [compound 103, [N-terminal(C20 diacid-gGlu), 4G, 15Q, 21Q, 23Y, 30S, 31G, 32T, 33Y]mimylin] ({C20 diacid-γGlu}-EASGLSTAALGRLSQELHELQTYPRTETGSGTY-NH2) | ≧200 μM | ≧200 μM | 156 (≈ 620 µg/mL) | ≧200 μM | ≧200 μM | ≧200 μM | ≧200 μM | ≧200 μM |  | 
CC(C)C[C@H](NC(=O)[C@H](C)NC(=O)[C@H](C)NC(=O)[C@@H](NC(=O)[C@H](CO)NC(=O)[C@H](CC(C)C)NC(=O)[C@H](CCC(=O)O)NC(=O)[C@H](CO)NC(=O)[C@H](C)N)[C@@H](C)O)C(=O)NCC(=O)N[C@@H](CCCNC(=N)N)C(=O)N[C@@H](CC(C)C)C(=O)N[C@@H](CO)C(=O)N[C@@H](C)C(=O)N[C@@H](CCC(=O)O)C(=O)N[C@@H](CC(C)C)C(=O)N[C@@H](Cc1cnc[nH]1)C(=O)N[C@@H](CCC(=O)O)C(=O)N[C@@H](CC(C)C)C(=O)N[C@@H](C)C(=O)N[C@H](C(=O)N[C@@H](CC(C)C)C(=O)N1CCC[C@H]1C(=O)N[C@@H](CCCNC(=N)N)C(=O)N[C@H](C(=O)N[C@@H](CCCCNC(=O)CC[C@H](NC(=O)CCCCCCCCCCCCCCCCCCC(=O)O)C(=O)O)C(=O)N[C@H](C(=O)NCC(=O)N[C@@H](CO)C(=O)NCC(=O)N[C@@H](CO)C(=O)N1CCC[C@H]1C(N)=O)[C@@H](C)O)[C@@H](C)O)[C@@H](C)O [compound 55, [des1, 27K(C20 diacid-gGlu), 30S, 31G]mimylin] | ≧200 μM | ≧200 μM |  | ≧200 μM | ≧200 μM | ≧200 μM | ≧200 μM | ≧200 μM | ≧200 μM | 
CC(C)C[C@H](NC(=O)[C@H](C)NC(=O)[C@H](C)NC(=O)[C@@H](NC(=O)[C@H](CO)NC(=O)[C@H](CC(C)C)NC(=O)[C@H](CCC(=O)O)NC(=O)[C@H](CO)NC(=O)[C@H](C)NC(=O)CC[C@H](NC(=O)CCCCCCCCCCCCCCCCCCC(=O)O)C(=O)O)[C@@H](C)O)C(=O)NCC(=O)N[C@@H](CCCNC(=N)N)C(=O)N[C@@H](CC(C)C)C(=O)N[C@@H](CO)C(=O)N[C@@H](C)C(=O)N[C@@H](CCC(=O)O)C(=O)N[C@@H](CC(C)C)C(=O)N[C@@H](Cc1cnc[nH]1)C(=O)N[C@@H](CCC(=O)O)C(=O)N[C@@H](CC(C)C)C(=O)N[C@@H](C)C(=O)N[C@H](C(=O)N[C@@H](CC(C)C)C(=O)N1CCC[C@H]1C(=O)N[C@@H](Cc1cnc[nH]1)C(=O)N[C@H](C(=O)N[C@@H](CCC(=O)O)C(=O)N[C@H](C(=O)NCC(=O)N[C@@H](CO)C(=O)NCC(=O)N[C@@H](CO)C(=O)N1CCC[C@H]1C(N)=O)[C@@H](C)O)[C@@H](C)O)[C@@H](C)O [compound 73, [N-terminal(C20 diacid-gGlu), des1, 25H, 30S, 31G]mimylin] ({C20 diacid-γGlu}-ASELSTAALGRLSAELHELATLPHTETGSGSP-NH2) | ≧200 μM | ≧200 μM |  | ≧200 μM | ≧200 μM | ≧200 μM | ≧200 μM | ≧200 μM | ≧200 μM | 

Results, then the molecule that gave them:

Solubility (pH 3.0) | Solubility (pH 4.0) | solubility at 18 h (pH 5.0) [µM] | Solubility (pH 6.0) | Solubility (pH 6.5) | Solubility (pH 7.0) | Solubility (pH 7.5) | Solubility (pH 8.0) | Solubility (pH 5.0) | solubility at 18 h (pH 6.0) [µM] | Structure (SMILES)
≧200 μM | ≧200 μM |  | ≧200 μM | ≧200 μM | ≧200 μM | ≧200 μM | ≧200 μM | ≧200 μM |  | CC(C)C[C@H](NC(=O)[C@H](C)NC(=O)[C@H](C)NC(=O)[C@@H](NC(=O)[C@H](CO)NC(=O)[C@H](CC(C)C)NC(=O)[C@H](CCC(=O)O)NC(=O)[C@H](CO)NC(=O)[C@H](C)NC(=O)CC[C@H](NC(=O)CCCCCCCCCCCCCCCCC(=O)O)C(=O)O)[C@@H](C)O)C(=O)NCC(=O)N[C@@H](CCCNC(=N)N)C(=O)N[C@@H](CC(C)C)C(=O)N[C@@H](CO)C(=O)N[C@@H](C)C(=O)N[C@@H](CCC(=O)O)C(=O)N[C@@H](CC(C)C)C(=O)N[C@@H](Cc1cnc[nH]1)C(=O)N[C@@H](CCC(=O)O)C(=O)N[C@@H](CC(C)C)C(=O)N[C@@H](C)C(=O)N[C@H](C(=O)N[C@@H](CC(C)C)C(=O)N1CCC[C@H]1C(=O)N[C@@H](CCCNC(=N)N)C(=O)N[C@H](C(=O)N[C@@H](CCC(=O)O)C(=O)N[C@H](C(=O)NCC(=O)N[C@@H](CO)C(=O)N1CCC[C@H]1C(=O)N[C@@H](CO)C(=O)N1CCC[C@H]1C(N)=O)[C@@H](C)O)[C@@H](C)O)[C@@H](C)O [compound 35, [N-terminal(C18 diacid-gGlu), des1, 30S, 31P]mimylin] ({C18 diacid-γGlu}-ASELSTAALGRLSAELHELATLPRTETGSPSP-NH2)
≧200 μM | ≧200 μM |  | ≧200 μM | ≧200 μM | ≧200 μM | ≧200 μM | ≧200 μM | ≧200 μM |  | CC(C)C[C@H](NC(=O)[C@H](C)NC(=O)[C@H](C)NC(=O)[C@@H](NC(=O)[C@H](CO)NC(=O)[C@H](CC(C)C)NC(=O)[C@H](CCC(=O)O)NC(=O)[C@H](CO)NC(=O)[C@H](C)NC(=O)CC[C@H](NC(=O)CCCCCCCCCCCCCCCCC(=O)O)C(=O)O)[C@@H](C)O)C(=O)NCC(=O)N[C@@H](CCCNC(=N)N)C(=O)N[C@@H](CC(C)C)C(=O)N[C@@H](CO)C(=O)N[C@@H](C)C(=O)N[C@@H](CCC(=O)O)C(=O)N[C@@H](CC(C)C)C(=O)N[C@@H](Cc1cnc[nH]1)C(=O)N[C@@H](CCC(=O)O)C(=O)N[C@@H](CC(C)C)C(=O)N[C@@H](C)C(=O)N[C@H](C(=O)N[C@@H](CC(C)C)C(=O)N1CCC[C@H]1C(=O)N[C@@H](CCCNC(=N)N)C(=O)N[C@H](C(=O)N[C@@H](CCC(=O)O)C(=O)N[C@H](C(=O)NCC(=O)N[C@@H](CO)C(=O)NCC(=O)N1CCC[C@H]1C(=O)N1CCC[C@H]1C(N)=O)[C@@H](C)O)[C@@H](C)O)[C@@H](C)O [compound 75, [N-terminal(C18 diacid-gGlu), des1, 30S, 31G, 32P]mimylin] ({C18 diacid-γGlu}-ASELSTAALGRLSAELHELATLPRTETGSGPP-NH2)
≧200 μM | ≧200 μM |  |  | ≧200 μM | ≧200 μM | ≧200 μM | ≧200 μM | ≧200 μM | 38 (≈ 139 µg/mL) | CC(C)C[C@H](NC(=O)[C@H](CCC(=O)O)NC(=O)[C@H](Cc1cnc[nH]1)NC(=O)[C@H](CC(C)C)NC(=O)[C@H](CCC(=O)O)NC(=O)[C@H](C)NC(=O)[C@H](CO)NC(=O)[C@H](CC(C)C)NC(=O)[C@H](CCCNC(=N)N)NC(=O)CNC(=O)[C@H](CC(C)C)NC(=O)[C@@H](NC(=O)[C@H](C)NC(=O)[C@@H](NC(=O)[C@H](CO)NC(=O)[C@@H](NC(=O)[C@H](CCC(=O)O)NC(=O)[C@H](CO)NC(=O)[C@H](C)NC(=O)CC[C@H](NC(=O)CCCCCCCCCCCCCCCCC(=O)O)C(=O)O)C(C)C)[C@@H](C)O)C(C)C)C(=O)N[C@@H](C)C(=O)N[C@H](C(=O)N[C@@H](CC(C)C)C(=O)N1CCC[C@H]1C(=O)N[C@@H](CCCNC(=N)N)C(=O)N[C@H](C(=O)N[C@@H](CCC(=O)O)C(=O)N[C@H](C(=O)NCC(=O)N[C@@H](CO)C(=O)NCC(=O)N[C@@H](CO)C(=O)N1CCC[C@H]1C(N)=O)[C@@H](C)O)[C@@H](C)O)[C@@H](C)O [compound 86, [N-terminal(C18 diacid-gGlu), des1, 5V, 9V, 30S, 31G]mimylin] ({C18 diacid-γGlu}-ASEVSTAVLGRLSAELHELATLPRTETGSGSP-NH2)
